IC50 and CC50 data for 14 compounds are collected here from PMC10989010, “A panel of janus kinase inhibitors identified with anti-inflammatory effects protect mice from lethal influenza virus infection” (Antimicrobial Agents and Chemotherapy, 2024).

Each structure is given as a SMILES string. Where a name gives a salt, the structure may show the parent alone. Read-outs that look alike come from different tables or passages of the source. Where only a bound is given, the exact number is not on record here.

One series concerns IL-8. As to the kind of experiment: U937 cell-based anti-inflammatory assay for influenza virus infection, IL-8 production (AlphaLISA). More on the design: species or system human. As to conditions: read-out: IC50 IL-8. As for the experimental part: U937 cells were seeded in a 96-well culture plate at a density of 1.5 × 10^5 cells per well and incubated for 24 hours prior to virus infection. Subsequently, the cells in each well were infected with the PR8 virus at a multiplicity of infection of 0.05 and treated with serially diluted drugs or left untreated as a control. The drugs were serially diluted threefold, starting from an initial concentration of 200 µM down to 0.01 µM. […] Following this incubation, the supernatants were collected and subjected to AlphaLISA analysis to determine IL-8, IP-10, and MCP1 protein levels.
The AlphaLISA detection kits employed in this study were IL-8 (PerkinElmer AL224), IP-10 (PerkinElmer AL259), and MCP1 (PerkinElmer, AL244). U937 cell culture supernatants were measured for IL-8, IP-10, and MCP-1 protein levels using AlphaLISA assay as per the manufacturer’s recommendations. The ELISA and AlphaLISA plates were read using the Varioskan LUX multimode microplate reader (Thermo Scientiﬁc, Waltham, MA, USA).

Another series deals with IP-10. Kind of series: cells. It counts as cell-based, human. As to conditions: read-out: IC50 IP-10.
A further series concerns MCP1. As to the kind of experiment: cells. It counts as cell-based, human. As to conditions: read-out: IC50 MCP1.
For the next series, the system named is U937 cells. As to the kind of experiment: Cytotoxicity assay (CellTiter-Glo). It counts as cell-based, human. As to conditions: U937 cells; CellTiter-Glo; mean of three independent experiments. As for the experimental part: (§1) The compound cytotoxicity was determined by CellTiter-Glo Assay (Promega, Madison, WI, USA). After adding 15 µL of CellTiter-Glo reagent to each well, plates were incubated at room temperature for 15 minutes with shaking. The luminescence intensity was determined by a multimode plate reader (Wallac Envision, PerkinElmer, MA, USA).

Series [1] can be described thus: Cytotoxicity assay (CellTiter-Glo). It counts as cell-based, human. As to conditions: human. As for the experimental part: as §1
The mark [2] stands for this setting: U937 cells, CellTiter-Glo, mean of three independent experiments, read-out: CC50.

For `Cc1cc(Nc2nc(N[C@@H](C)c3ccc(F)cc3)c(C#N)cc2F)n[nH]1` [AZ 960], the IC50 was < 5 nM in the series with IL-8 (Homo sapiens, U-937, 72 h); 10 nM with IP-10 (Homo sapiens, U-937, 72 h); < 5 nM in the series with MCP1 (Homo sapiens, U-937, 72 h). This compound had a CC50 in the series with U937 cells of 6000 nM.

Consider `Cc1cc(Nc2nc(N[C@@H](C)c3ncc(F)cn3)ncc2Cl)n[nH]1` [AZD1480], for which the IC50 in the series on IL-8 (Homo sapiens, U-937, 72 h) was determined as 1100 nM; in the series with IP-10 (Homo sapiens, U-937, 72 h), 1000 nM; in the series on MCP1 (Homo sapiens, U-937, 72 h) it was 300 nM. The CC50 in series [1] (setting [2]) worked out at 13500 nM.

With `CCS(=O)(=O)N1CC(CC#N)(n2cc(-c3ncnc4[nH]ccc34)cn2)C1` [Baricitinib], in the series with U937 cells, the CC50 is > 100000 nM.

With `CN1CCN(c2cccc(Nc3nc4c(-c5ccc(S(C)(=O)=O)cc5)cccn4n3)c2)CC1` [CEP-33779], the IC50 came out at 360 nM in the series with IL-8 (U937 cells infected with PR8 virus, 72 hours, Alphalisa, mean of three independent experiments); 220 nM in the series on IP-10; 240 nM in the series with MCP1. In the series with U937 cells, this compound returned a CC50 of 10500 nM.

For the compound `CCS(=O)(=O)N1CCN(c2ccc(Nc3ncc(C(N)=O)c(NC4CC4)n3)cc2)CC1` [Cerdulatinib hydrochloride], the IC50 was < 5 nM with IL-8 (Homo sapiens, U-937, 72 h); 50 nM in the series with IP-10 (Homo sapiens, U-937, 72 h); 20 nM with MCP1 (Homo sapiens, U-937, 72 h). In the series with U937 cells, this compound showed a CC50 of 3500 nM.

`CC[C@@](C)(Nc1ccnc(-c2c[nH]c3ncccc23)n1)C(=O)NCC(F)(F)F` [Decernotinib]: the IC50 with IP-10 (Homo sapiens, U-937, 72 h) came to 100 nM; in the series on MCP1 (Homo sapiens, U-937, 72 h), 50 nM. This compound gave a CC50 with U937 cells of 50000 nM.

`Cc1cc(Nc2cc(CN3CCOCC3)c3nc(C)c(Cc4ccc(Cl)cc4F)n3n2)n[nH]1` [Gandotinib]: the IC50 is < 5 nM with IL-8 (Homo sapiens, U-937, 72 h); 10 nM with IP-10 (Homo sapiens, U-937, 72 h); < 5 nM in the series on MCP1 (Homo sapiens, U-937, 72 h). The same compound displayed a CC50 with U937 cells of 26000 nM.

Regarding `N#CCNC(=O)c1ccc(-c2ccnc(Nc3ccc(N4CCOCC4)cc3)n2)cc1` [Momelotinib], the IC50 in the series on IL-8 (Homo sapiens, U-937, 72 h) is 300 nM; with IP-10 (Homo sapiens, U-937, 72 h), 480 nM; with MCP1 (Homo sapiens, U-937, 72 h), 30 nM. This compound also registered a CC50 in the series on U937 cells of 5400 nM.

In the case of `NC(=O)c1cnc2[nH]ccc2c1N[C@@H]1[C@@H]2CC3C[C@H]1C[C@@](O)(C3)C2` [Peficitinib], the IC50 in the series with IL-8 (Homo sapiens, U-937, 72 h) amounted to 10 nM; in the series with IP-10 (Homo sapiens, U-937, 72 h), 20 nM. The compound further yielded a CC50 in series [1] of 34700 nM.

For the compound `N#CC[C@H](C1CCCC1)n1cc(-c2ncnc3[nH]ccc23)cn1` [Ruxolitinib], the IC50 was 120 nM with IL-8 (Homo sapiens, U-937, 72 h); 70 nM in the series on IP-10 (Homo sapiens, U-937, 72 h); 30 nM in the series on MCP1 (Homo sapiens, U-937, 72 h). The compound further had a CC50 with U937 cells of 100000 nM.

For the compound `N#CC[C@@H](C1CCCC1)n1cc(-c2ncnc3[nH]ccc23)cn1` [S-Ruxolitinib], the IC50 in the series on IL-8 (Homo sapiens, U-937, 72 h) amounted to 30 nM; with IP-10 (Homo sapiens, U-937, 72 h) it was 80 nM; in the series with MCP1 (Homo sapiens, U-937, 72 h) it was 60 nM. In series [1] (setting [2]), the CC50 stood at 100000 nM.

With `C[C@@H]1CCN(C(=O)CC#N)C[C@@H]1N(C)c1ncnc2[nH]ccc12` [Tofacitinib citrate], in series [1] (setting [2]), the CC50 is > 100000 nM.

Regarding `C[C@@H]1CCN(C(=O)CC#N)C[C@@H]1N(C)c1ncnc2[nH]ccc12` [Tofacitinib], the CC50 in the series with U937 cells is > 100000 nM.

For the compound `O=C(Nc1ccc(-c2ccnc(Nc3ccc(N4CCOCC4)cc3)n2)cc1)C1CCCN1` (stereo not drawn) [XL019], the IC50 was determined as 510 nM in the series on IL-8 (Homo sapiens, U-937, 72 h); 990 nM in the series with IP-10 (Homo sapiens, U-937, 72 h); 940 nM with MCP1 (Homo sapiens, U-937, 72 h). This compound also had a CC50 in the series on U937 cells of 26700 nM.
